Structures are written as SMILES.

Experiment [1] has as its system NCI-H2170 (HER2/ErbB2 amp). Briefly: In vitro growth inhibition (GI50), NCI-H2170. The experiment is classed as cell-based. To be noted: Homo sapiens. An excerpt: (§1) Tumor cell line is an effective cell model for studying the inhibition of tumor cell growth or proliferation in vitro. In the present invention, a representative tumor cell line was selected to determine the cell growth inhibition activity of the present compound. All cell lines used were from ATCC, DSMZ, and the Cell Bank of the Chinese Academy of Sciences. Cell culture conditions and methods were in accordance with the requirements of each cell line. Cells were subcultured in vitro for no more than 3 passages each time, and as required, single-clone purification and identification of cell lines could be carried out.
(§2) The cell culture media used were RPMI1640 (Gibco), MEM (Gibco), McCOY'S5A (Gibco), and IMDM (Gibco). The complete medium was prepared by supplement with 5˜20% fetal calf serum (Gibco), 1% double-antibiotics (10000 units/mL penicillin and 10000 units/mL), 2 mM glutamine or 1 mM sodium pyruvate, respectively.
Human gastric cancer cell line NCI-N87 (HER2/ErbB2 amp, ATCC), human breast cancer cell line HCC1954 (HER2/ErbB2 amp, ATCC) and ZR-75-30 (HER2/ErbB2 amp, ATCC), human adenocarcinoma cell line AU565 (HER2/ErbB2 amp, ATCC), human lung squamous cell carcinoma cell line NCI-H2170 (HER2/ErbB2 amp, ATCC), human bronchioalveolar adenocarcinoma cell line NCI-H1781 (HER2/ErbB2 Ins G776V,C mutant type, ATCC) were cultured with a 1×RPMI1640 complete medium (10% FBS), respectively. Human lung adenocarcinoma cell line Calu-3 (HER2/ErbB2 amp, ATCC) was cultured with 1×MEM, 10% FBS, 1% double antibody, 1% NEAA (Gibco), 2 mM glutamine and 1 mM sodium pyruvate. The human breast cancer cell line SK-BR-3 (HER2/ErbB2 amp, ATCC) was cultured with a McCOY'S5A complete medium (10% FBS).
(§3) Adherent cells were digested with 0.25% pancreatin-EDTA (Gibco). The suspension cells were collected by centrifugation. The supernatant was discarded and the cell pellet was resuspended and counted. Different cell concentrations (5˜10×10^4 cells/mL) were prepared according to the growth cycle of each cell line and then seeded on a 96-well plate (Corning), 100 μL/well. The cells were incubated overnight at 37° C., 5% CO2. The compounds were added to the cells on the second day with 2 wells in parallel. The final concentration of organic solvent shall not exceed 1%. The cells were continually incubated for 3 to 5 days, and then subjected to MTT assay.
(§4) The compound of the present invention and the control compound were dissolved in DMSO (Sigma) respectively, with the purity of more than 98%. The compound was stored in a concentration of 10 mM at −20° C. and diluted to 2- or 10-fold series prior to use.
(§5) Dojindo CCK8 reagent kit was used as MTT assay. THERMO […] FC meter was used as microplate reader.
(§6) For adherent cells, culture medium was removed and immediately replaced with the fresh prepared medium which contains 10% CCK8 reagent (100 μL/well). For the suspension cells, CCK8 was directly added to 10% of the final concentration. The cells were continually incubated for 1˜4 h. When a dark yellow color could be observed in the solvent control wells, the absorbance value at OD450 nm was measured and the cell growth rate was calculated according to the following formula: Cell Growth Rate (%)=100*(T−T0)/(C−T0) T=optical density of drug treatment cell well—optical density of blank control well; T0=optical density of cell well before drug treatment—optical density of blank control well; C=optical density of cell well of solvent control group—optical density of blank control well. The concentration value of 50% inhibition of cell growth (GI50) was calculated according to the drug concentration and cell growth rate curve. The experiment was independently repeated 1˜3 times, and subject to biological statistical analysis. 4. Experimental Results
Tumor cell growth inhibition test was performed by selecting representative compounds (compounds 4, 11, 12, 16, 27, 68, 71, 77, 79, 89 and 116 of the present invention). […]

The test system of experiment [2] is NCI-H2228 (expressing EML4-ALK fusion gene). The experiment can be described thus: In vitro growth inhibition (GI50), NCI-H2228. Format: cell-based. To be noted: Homo sapiens.
From the text: as §1, §2
Human non-small cell lung cancer cell line NCI-H2228 (expressing EML4-ALK fusion gene, ATCC) and human anaplastic large cell lymphoma cell line Karpas-299 (expressing NPM-ALK fusion gene, ATCC) were cultured in complete medium comprising 1×RPMI1640 (10% FBS), respectively. Neuroblastoma cell line SH-SY5Y (expressing ALK F1174L mutant protein, Shanghai Cell Bank, Chinese Academy of Sciences) was cultured in MEM complete medium (1×MEM, 10% FBS, 1% NEAA, 1 mM sodium pyruvate).
as §3, §4, §5, §6
Tumor cell growth inhibition test was performed by selecting representative compounds (compounds 4, 11, 12, 16, 27, 68, 71, 77, 79, 89 and 116 of the present invention). The initial concentration of the compound was 5,000 nM, then it was serially diluted by 2-fold or 10-fold to 0.01 nM. The GI50 value of each test compound was calculated according to the GI50 assay and calculation method. The experiments were repeated 1 to 3 times, and data were subjected to biological statistical analysis.

The term GI50 denotes the concentration that inhibits growth by half. A low value points to greater sensitivity of the cells. For `CC(C)(C)c1cc(NC(=O)Nc2ccc(-n3cnc4cc(O)ccc43)cc2)no1` [Compound 4, 1-(5-tert-butyl-isoxazol-3-yl)-3-[4-(5-hydroxy-benzimidazol-1-yl)-phenyl]-urea], the GI50 in experiment [1] and in experiment [2] was above 2500 nM throughout.

In the case of `CC(C)(C)c1cc(NC(=O)Nc2ccc(-n3cnc4cc(OCCO)ccc43)cc2)no1` [Compound 11, 1-(5-tert-butyl-isoxazol-3-yl)-3-{4-[5-(2-hydroxy-ethoxyl)-benzimidazol-1-yl]-phenyl]-urea], the GI50 in experiment [1] and in experiment [2] was above 2500 nM throughout.

For `CC(C)(C)c1cc(NC(=O)Nc2ccc(-n3cnc4cc(OCCN5CCOCC5)ccc43)cc2)no1` [Compound 16, 1-(5-tert-butyl-isoxazol-3-yl)-3-{4-[5-(2-morpholin-4-yl-ethoxyl)-benzimidazol-1-yl]-phenyl}-urea], the GI50 in experiment [1] and in experiment [2] was above 2500 nM throughout.

As for `CC(C)(C)c1cc(NC(=O)Nc2ccc(-n3cnc4ccc(OCCN5CCOCC5)cc43)cc2)no1` [Compound 27, 1-(5-tert-butyl-isoxazol-3-yl)-3-{4-[6-(2morpholin-4-yl-ethoxyl)-benzimidazol-1-yl]-phenyl}-urea], the GI50 in experiment [1] and in experiment [2] was above 2500 nM in each case.

As to `CC(C)(C)c1cc(NC(=O)Nc2ccc(-n3cnc4ccccc43)cc2)[nH]n1` [Compound 68, 1-(4-benzimidazol-1-yl-phenyl)-3-(5-tert-butyl-2H-pyrazol-3-yl)-urea], the GI50 in experiment [1] and in experiment [2] was above 2500 nM in each case.

For `COc1ccc2c(c1)ncn2-c1ccc(NC(=O)Nc2cc(C(C)(C)C)n[nH]2)cc1` [Compound 71, 1-(5-tert-butyl-2H-pyrazol-3-yl)-3-[4-(5-methoxyl-benzimidazol-1-yl)-phenyl]-urea], the GI50 in experiment [1] and in experiment [2] was above 2500 nM in each case.

For `COCCOc1ccc2c(c1)ncn2-c1ccc(NC(=O)Nc2cc(C(C)(C)C)n[nH]2)cc1` [Compound 77, 1-(5-tert-butyl-2H-pyrazol-3-yl)-3-{4-[5-(2-methoxyl-ethoxyl)-benzimidazol-1-yl]-phenyl}-urea], the GI50 in experiment [1] and in experiment [2] was above 2500 nM in each case.

As for `CC(C)(C)c1cc(NC(=O)Nc2ccc(-n3cnc4cc(OCCO)ccc43)cc2)[nH]n1` [Compound 79, 1-(5-tert-butyl-2H-pyrazol-3-yl)-3-{4-[5-(2-hydroxy-ethoxyl)-benzimidazol-1-yl]-phenyl]urea], the GI50 in experiment [1] and in experiment [2] was above 2500 nM in each case.

On to `CC(C)(C)c1cc(NC(=O)Nc2ccc(-n3cnc4cc(OCCN5CCOCC5)ccc43)cc2)[nH]n1` [Compound 89, 1-(5-tert-butyl-2H-pyrazol-3-yl)-3-{4-[5-(2-morpholin-4-yl-ethoxyl)-benzimidazol-1-yl]-phenyl}-urea], for which the GI50 in experiment [1] and in experiment [2] was above 2500 nM each time.

In the case of `CC(C)(C)c1cc(N)n(C(=O)Nc2ccc(-n3cnc4ccccc43)cc2)n1` [Compound 116, 5-amino-3-tert-butyl-pyrazol-1-carboxylic acid (4-benzimidazol-1-yl-phenyl)-amide], the GI50 in experiment [1] and in experiment [2] was above 2500 nM throughout.

For the origin of these results see patent publication US10647680B2, “Urea compound, preparation method therefor and medical use thereof” (Ancureall Pharmaceutical (Shanghai) Co., Ltd., priority 2016, dated 2020).
